In patent publication US7737167B2, “2-amino benzimidazole derivatives and their use as modulators of small-conductance calcium-activated potassium channels” (Neurosearch A/S, priority 2004, dated 2010) one finds melting point data, which are given here for 19 molecules.

Where a name gives a salt, the structure may show the parent alone.

The molecule `c1ccc(C(CNc2nc3ccccc3[nH]2)c2ccccc2)cc1` (as salt: HCl) [Example 1, N-(Benzimidazol-2-yl)-2,2-diphenylethylamine] showed a melting point of 153.5 to 154.5 °C.

Turning to `c1ccc(C(CCNc2nc3ccccc3[nH]2)c2ccccc2)cc1` (as salt: HCl) [Example 4, N-(Benzimidazol-2-yl)-3,3-diphenylpropylamine], the melting point is 136.5 to 137.5 °C.

`CC1CCC(Nc2nc3ccccc3[nH]2)c2ccccc21` (stereo not shown) (as salt: HCl) [Example 20, N-(Benzimidazol-2-yl)-4-methyl-1,2,3,4-tetrahydro-1-naphthylamine] registered a melting point of 276 °C.

With `Fc1ccc(C(CNc2nc3ccccc3[nH]2)c2ccc(F)cc2)cc1` [Example 2, N-(Benzimidazol-2-yl)-2,2-bis(4-fluorophenyl)ethylamine], the melting point lay within 155 to 157 °C. Molecule `Clc1ccc(C(CNc2nc3ccccc3[nH]2)c2ccc(Cl)cc2)cc1` [Example 3, N-(Benzimidazol-2-yl)-2,2-bis(4-chlorophenyl)ethylamine] came in with a melting point of 189 to 190 °C. To `c1ccc2c(c1)CC(Nc1nc3ccccc3[nH]1)C2` [Example 6, N-(Benzimidazol-2-yl)-2-indanylamine] belongs 246 to 249 °C; to `Fc1ccc2c(c1)CCC2Nc1nc2ccccc2[nH]1` (stereo not shown) [Example 7, N-(Benzimidazol-2-yl)-5-fluoro-1-indanylamine], 207 to 208 °C; to `Clc1ccc2c(c1)CCC2Nc1nc2ccccc2[nH]1` (stereo not shown) [Example 8, N-(Benzimidazol-2-yl)-5-chloro-1-indanylamine], 242 to 243 °C. As for `Brc1ccc2c(c1)CCC2Nc1nc2ccccc2[nH]1` (stereo not shown) [Example 9, N-(Benzimidazol-2-yl)-5-bromo-1-indanylamine], the figure is 242 to 243 °C.

Regarding `c1ccc(C(Nc2nc3ccccc3[nH]2)c2ccccc2)cc1` [Example 11, N-(Benzimidazol-2-yl)benzhydrylamine], the melting point was 255 to 258 °C. To `Clc1ccc(C(Nc2nc3ccccc3[nH]2)c2ccccc2)cc1` (stereo not shown) [Example 12, N-(Benzimidazol-2-yl)-4-chlorobenzhydrylamine] belongs 180 to 184 °C. As for `Clc1ccc(C(Nc2nc3ccccc3[nH]2)c2ccc(Cl)cc2)cc1` [Example 13, N-(Benzimidazol-2-yl)-4,4′-dichlorobenzhydrylamine], the melting point fell in the range of 176 to 180 °C. To `Fc1ccc(C(Nc2nc3ccccc3[nH]2)c2ccc(F)cc2)cc1` [Example 14, N-(Benzimidazol-2-yl)-4,4′-difluorobenzhydrylamine] belongs 241 to 243 °C. In turn, `c1ccc2c(c1)CCCCC2Nc1nc2ccccc2[nH]1` (stereo not shown) [Example 15, N-(Benzimidazol-2-yl)-6,7,8,9-tetrahydro-5H-benzocyclohepten-5-ylamine] had a melting point of 203 to 205 °C. The molecule `CC1CCc2ccccc2C1Nc1nc2ccccc2[nH]1` (stereo not shown) [Example 18, N-(Benzimidazol-2-yl)-2-methyl-1,2,3,4-tetrahydro-1-naphthylamine] displayed a melting point of 256 to 257 °C. As for `Cc1cc(C)c2c(c1)C(Nc1nc3ccccc3[nH]1)CCC2` (stereo not shown) [Example 19, N-(Benzimidazol-2-yl)-5,7-dimethyl-1,2,3,4-tetrahydro-1-naphthylamine], the figure is 250 to 252 °C. In turn, `Cc1cc2nc(N[C@@H]3CCCc4ccccc43)[nH]c2cc1C` [Example 23, (R)-N-(5,6-Dimethylbenzimidazol-2-yl)-1,2,3,4-tetrahydro-1-naphthylamine] came in with a melting point of 121 to 124 °C. `Fc1ccc2nc(NC3CCCc4ccccc43)[nH]c2c1` (stereo not shown) [Example 24, N-(5-Fluorobenzimidazol-2-yl)-1,2,3,4-tetrahydro-1-naphthylamine] displayed a melting point of 220 to 221 °C. As to `Fc1ccc2c(c1)C(Nc1nc3ccccc3[nH]1)CCC2` (stereo not shown) [Example 26, N-(Benzimidazol-2-yl)-7-fluoro-1,2,3,4-tetrahydro-1-naphthylamine], the melting point turned out to be 181 °C.

The term melting point denotes the temperature of the solid-liquid transition.
